Measured values from patent US9751878B2, “Tetrahydronaphthyridine somatostatin receptor 5 antagonists” (Takeda Pharmaceutical Company Limited, priority 2013, dated 2017).

Target: T1, human SSTR5 (Homo sapiens, UniProt P35346)
T1 construct: expressed in transfected cells
Assay: Evaluation of human SSTR5 antagonist activity using intracellular cAMP concentration as index
Type: cell-based
Conditions: 1 μM test compound; CHO (dhfr-) cells stably expressing human SSTR5; 0.1 nM somatostatin 28, 0.3 μM forskolin; cAMP HTRF; read-out: Inhibition rate against SSTR5 at 1 μM
Procedure: Evaluation of Human SSTR5 Antagonist Activity Using Intracellular cAMP Concentration as Index
The intracellular cAMP concentration was measured using HTRF cAMP dynamic 2 kit (Cisbio Bioassays). Each test compound diluted with an assay buffer (HBSS (Invitrogen Corp.) containing 5 mM HEPES (pH 7.5) (Invitrogen Corp.), 0.1% fatty-acid free BSA (Sigma-Aldrich Corp.), and 500 μM IBMX (Wako Pure Chemical Industries, Ltd.)) was added at a concentration of 2 μL/well to a 384-well white plate (Greiner Bio-One Co., Ltd.) to give the final concentration of 1 μM. A frozen stock of CHO (dhfr-) cells stably expressing the human SSTR5 gene (Accession No. NM_001053) was thawed in a thermostat bath of 37° C. and suspended in a subculture medium (MEM alpha (Wako Pure Chemical Industries, Ltd.), 10% dialyzed serum (Gemini Bio-Products), and 50 μg/mL gentamicin (Invitrogen Corp.). After centrifugation of the cell suspension, the cells were resuspended in an assay buffer and added at a concentration of 2 μL/well (about 4,000 cells/well) to the plate. The compound and the cells were incubated for 15 minutes, and then, an assay buffer containing 0.1 nM (final concentration) somatostatin 28 (Toray Research Center) and 0.3 μM (final concentration) forskolin (Wako Pure Chemical Industries, Ltd.) was added thereto at a concentration of 2 μL/well, followed by incubation at room temperature for 30 minutes. cAMP-d2 and anti-cAMP-cryptate were each added thereto at a concentration of 3 μL/well. The plate was left standing at room temperature for 60 minutes. Then, the fluorescence resonance energy transfer (FRET) intensity was measured using Multi-label reader Envision (PerkinElmer). The FRET intensity of the wells supplemented with the test compound group was converted to a cAMP concentration using a calibration curve prepared from the FRET intensity of a well group containing an assay buffer supplemented with an arbitrary concentration of cAMP. The inhibitory activity of each compound was calculated according to the following expression: Inhibitory activity (%)=(C−B)/(A−B)×100 A: cAMP concentration calculated from the wells supplemented with 0.3 μM forskolin B: cAMP concentration calculated from the wells supplemented with 0.3 μM forskolin and 0.1 nM somatostatin 28 C: cAMP concentration calculated from the wells supplemented with 0.3 μM forskolin, 0.1 nM somatostatin 28, and 1 μM test compound

T1 sequence (P35346 whole entry): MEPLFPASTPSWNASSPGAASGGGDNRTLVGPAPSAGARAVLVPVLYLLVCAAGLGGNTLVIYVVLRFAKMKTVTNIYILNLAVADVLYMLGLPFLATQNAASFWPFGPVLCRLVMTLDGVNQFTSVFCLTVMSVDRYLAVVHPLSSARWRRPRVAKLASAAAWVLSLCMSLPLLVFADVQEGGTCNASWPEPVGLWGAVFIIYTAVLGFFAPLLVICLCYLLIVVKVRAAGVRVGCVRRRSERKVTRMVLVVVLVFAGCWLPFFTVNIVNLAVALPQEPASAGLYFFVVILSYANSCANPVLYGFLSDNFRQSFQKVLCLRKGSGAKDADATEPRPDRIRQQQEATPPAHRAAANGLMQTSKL

**Q.** `CCc1nc2c(cc1C(=O)O)C(=O)N(C1CCN(Cc3cc(C4CC4)c(-c4ccc(F)cc4)cc3OC(C)C)CC1)CC2` [Example 44, 6-(1-((2-Cyclopropyl-4′-fluoro-5-isopropoxybiphenyl-4-yl)methyl)piperidin-4-yl)-2-ethyl-5-oxo-5,6,7,8-tetrahydro-1,6-naphthyridine-3-carboxylic acid] was tested. Which inhibition at 1 µM did it give?
**A.** 111%

**Q.** How did the inhibition at 1 µM turn out when `CCc1nc2c(cc1C(=O)O)C(=O)N(C1CCN(Cc3cc(C4CC4)c(-c4ccc(F)cc4F)c(Cl)c3OC)CC1)CC2` [Example 66, 6-(1-((2-Chloro-6-cyclopropyl-2′,4′-difluoro-3-methoxybiphenyl-4-yl)methyl)piperidin-4-yl)-2-ethyl-5-oxo-5,6,7,8-tetrahydro-1,6-naphthyridine-3-carboxylic acid] was run?
**A.** 64%

**Q.** With `CCOc1cc(-c2ccc(F)cc2)c(C2CC2)cc1CN1CCC(N2CCc3nc(COC)c(C(=O)O)cc3C2=O)CC1` [Example 47, 6-(1-((2-Cyclopropyl-5-ethoxy-4′-fluorobiphenyl-4-yl)methyl)piperidin-4-yl)-2-(methoxymethyl)-5-oxo-5,6,7,8-tetrahydro-1,6-naphthyridine-3-carboxylic acid] as the molecule, how does the inhibition at 1 µM read?
**A.** 106%

**Q.** `Cc1nc2c(cc1C(=O)O)C(=O)N(C1CCN(Cc3cc(C4CC4)c(-c4ccc(F)cc4)nc3OC(C)C)CC1)CC2` [Example 6, 6-(1-((5-Cyclopropyl-6-(4-fluorophenyl)-2-isopropoxypyridin-3-yl)methyl)piperidin-4-yl)-2-methyl-5-oxo-5,6,7,8-tetrahydro-1,6-naphthyridine-3-carboxylic acid] was tested. Which inhibition at 1 µM did it give?
**A.** 88%

**Q.** With `CCCc1nc2c(cc1C(=O)O)C(=O)N(C1CCN(Cc3cc(OCC)c(-c4ccc(F)c(F)c4)c(C4CC4)c3)CC1)CC2` [Example 62, 6-(1-((2-Cyclopropyl-6-ethoxy-3′,4′-difluorobiphenyl-4-yl)methyl)piperidin-4-yl)-5-oxo-2-propyl-5,6,7,8-tetrahydro-1,6-naphthyridine-3-carboxylic acid] as the molecule, how does the inhibition at 1 µM read?
**A.** 92%

**Q.** Which inhibition at 1 µM does the source give for `CCCOc1cc(CN2CCC(N3CCc4nc(CCC)c(C(=O)O)cc4C3=O)CC2)cc(C2CC2)c1-c1ccc(F)cc1` [Example 61, 6-(1-((2-Cyclopropyl-4′-fluoro-6-propoxybiphenyl-4-yl)methyl)piperidin-4-yl)-5-oxo-2-propyl-5,6,7,8-tetrahydro-1,6-naphthyridine-3-carboxylic acid] here?
**A.** 96%

**Q.** With `CCOc1cc(C2CCC2)c(C2CC2)cc1CN1CCC(N2CCc3ncc(C(=O)O)cc3C2=O)CC1` [Example 30, 6-(1-(4-Cyclobutyl-5-cyclopropyl-2-ethoxybenzyl)piperidin-4-yl)-5-oxo-5,6,7,8-tetrahydro-1,6-naphthyridine-3-carboxylic acid] as the molecule, how does the inhibition at 1 µM read?
**A.** 110%

**Q.** `CCCc1nc2c(cc1C(=O)O)C(=O)N(C1CCN(Cc3cc(OCC)c(-c4ccc(F)cc4F)c(C4CC4)c3)CC1)CC2` [Example 64, 6-(1-((2-Cyclopropyl-6-ethoxy-2′,4′-difluorobiphenyl-4-yl)methyl)piperidin-4-yl)-5-oxo-2-propyl-5,6,7,8-tetrahydro-1,6-naphthyridine-3-carboxylic acid] was tested. Which inhibition at 1 µM did it give?
**A.** 89%

**Q.** Which inhibition at 1 µM does the source give for `CCCc1nc2c(cc1C(=O)O)C(=O)N(C1CCN(Cc3cc(C4CC4)c(C4CCC4)cc3OCC)CC1)CC2` [Example 52, 6-(1-(4-Cyclobutyl-5-cyclopropyl-2-ethoxybenzyl)piperidin-4-yl)-5-oxo-2-propyl-5,6,7,8-tetrahydro-1,6-naphthyridine-3-carboxylic acid] here?
**A.** 114%

**Q.** How did the inhibition at 1 µM turn out when `CCOc1cc(-c2ccc(F)cc2)c(C2CC2)cc1CN1CCC(N2CCc3nc(C(=O)O)ccc3C2=O)CC1` [Example 54, 6-(1-((2-Cyclopropyl-5-ethoxy-4′-fluorobiphenyl-4-yl)methyl)piperidin-4-yl)-5-oxo-5,6,7,8-tetrahydro-1,6-naphthyridine-2-carboxylic acid] was run?
**A.** 123%
